Data on 8 molecules can be found in patent US10385024B2, “Compounds and methods for inhibiting NHE-mediated antiport in the treatment of disorders associated with fluid retention or salt overload and gastrointestinal tract disorders” (Ardelyx, Inc., priority 2012, dated 2019).

Bounds are passed on as bounds.

The target in assay [1] is T1, Rat NHE-3 (Rattus norvegicus, UniProt P26433).
T1 construct: expressed in transfected cells; host or cells: Opossum kidney (OK) cells (ATCC), transfected by electroporation
T1 sequence (P26433 29-831): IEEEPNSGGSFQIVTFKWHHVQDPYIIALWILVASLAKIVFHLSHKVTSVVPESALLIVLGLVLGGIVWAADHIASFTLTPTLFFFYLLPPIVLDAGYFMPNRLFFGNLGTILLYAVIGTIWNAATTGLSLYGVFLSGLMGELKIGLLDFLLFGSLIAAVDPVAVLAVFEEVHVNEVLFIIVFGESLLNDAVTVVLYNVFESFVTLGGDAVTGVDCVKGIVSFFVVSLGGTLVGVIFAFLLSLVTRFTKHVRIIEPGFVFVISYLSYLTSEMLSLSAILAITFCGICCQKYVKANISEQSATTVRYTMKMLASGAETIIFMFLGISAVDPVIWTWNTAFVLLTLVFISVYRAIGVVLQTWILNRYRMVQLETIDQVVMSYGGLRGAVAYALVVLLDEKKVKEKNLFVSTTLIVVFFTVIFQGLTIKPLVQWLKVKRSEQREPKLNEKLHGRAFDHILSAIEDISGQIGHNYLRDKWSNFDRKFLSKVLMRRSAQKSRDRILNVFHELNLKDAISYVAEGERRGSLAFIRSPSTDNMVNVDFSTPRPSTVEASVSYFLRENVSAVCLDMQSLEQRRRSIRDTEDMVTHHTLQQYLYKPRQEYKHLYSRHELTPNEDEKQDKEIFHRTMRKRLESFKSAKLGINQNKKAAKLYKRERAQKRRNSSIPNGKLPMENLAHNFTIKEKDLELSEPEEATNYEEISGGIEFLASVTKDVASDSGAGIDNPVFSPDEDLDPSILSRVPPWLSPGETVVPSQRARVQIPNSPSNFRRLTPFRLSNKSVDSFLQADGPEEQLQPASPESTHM
The assay can be described thus: Cell-based assay of NHE-3 activity (persistent inhibition, after washout). As to conditions: OK cells with rat NHE-3 gene, 60 min incubation, recovery initiated 40 min after compound washout; for IC50: read-out: Rat NHE3 pIC50 (persistent) (converted). On the procedure: The ability of compounds to inhibit Rat NHE-3-mediated Na^+-dependent H^+ antiport after application and washout was measured using a modification of the pH sensitive dye method described above in Example 74. Opossum kidney (OK) cells were obtained from the ATCC and propagated per their instructions. The rat NHE-3 gene was introduced into OK cells via electroporation, and cells were seeded into 96 well plates and grown overnight. Medium was aspirated from the wells, cells were washed twice with NaCl-HEPES buffer (100 mM NaCl, 50 mM HEPES, 10 mM glucose, 5 mM KCl, 2 mM CaCl2, 1 mM MgCl2, pH 7.4), then overlayed with NaCl-HEPES buffer containing 0-30 μM test compound. After a 60 min incubation, the test drug containing buffer was aspirated from the cells, cells were washed twice with NaCl-HEPES buffer without drug, then incubated for 30 min at room temperature with NH4Cl-HEPES buffer (20 mM NH4Cl, 80 mM NaCl, 50 mM HEPES, 5 mM KCl, 2 mM CaCl2, 1 mM MgCl2, pH 7.4) containing 5 μM BCECF-AM. Cells were washed twice with ammonium free, Na^+-free HEPES (100 mM choline, 50 mM HEPES, 10 mM glucose, 5 mM KCl, 2 mM CaCl2, 1 mM MgCl2, pH 7.4) and incubated in the same buffer for 10 minutes at room temperature to lower intracellular pH. […] Initial rates were plotted as the average 2 or more replicates, and pIC50 values were estimated using GraphPad Prism.

The target in assay [2] is T2, human NHE-3 (Homo sapiens, UniProt P48764).
T2 construct: expressed in transfected cells; host or cells: Opossum kidney (OK) cells (ATCC), transfected by electroporation
T2 sequence (P48764 26-834): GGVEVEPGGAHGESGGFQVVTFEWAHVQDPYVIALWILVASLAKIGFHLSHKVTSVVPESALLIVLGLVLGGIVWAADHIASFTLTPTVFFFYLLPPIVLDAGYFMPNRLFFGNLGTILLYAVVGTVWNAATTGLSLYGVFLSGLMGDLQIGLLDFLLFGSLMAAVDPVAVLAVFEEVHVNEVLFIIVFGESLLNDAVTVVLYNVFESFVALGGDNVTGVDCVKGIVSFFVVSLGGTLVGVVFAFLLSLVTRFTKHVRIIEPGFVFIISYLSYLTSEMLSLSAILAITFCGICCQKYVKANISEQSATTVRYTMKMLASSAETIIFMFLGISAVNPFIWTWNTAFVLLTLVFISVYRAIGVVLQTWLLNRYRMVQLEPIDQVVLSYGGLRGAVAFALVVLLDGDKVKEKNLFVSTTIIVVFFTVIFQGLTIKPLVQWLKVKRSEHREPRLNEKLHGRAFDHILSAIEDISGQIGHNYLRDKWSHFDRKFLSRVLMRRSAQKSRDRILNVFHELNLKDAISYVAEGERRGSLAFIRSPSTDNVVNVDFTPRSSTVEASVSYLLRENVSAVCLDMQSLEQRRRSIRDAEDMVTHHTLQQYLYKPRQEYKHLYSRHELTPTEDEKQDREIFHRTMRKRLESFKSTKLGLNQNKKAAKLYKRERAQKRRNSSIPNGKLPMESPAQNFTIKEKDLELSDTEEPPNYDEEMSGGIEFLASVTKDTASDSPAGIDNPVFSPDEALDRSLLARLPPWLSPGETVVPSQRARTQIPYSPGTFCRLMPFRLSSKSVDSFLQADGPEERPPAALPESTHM
Nature of the assay: Cell-based assay of NHE-3 activity (human NHE3 inhibition assay). Particulars: OK cells with human NHE-3 gene, BCECF pH dye, 0-30 μM test compound; for IC50: read-out: Human NHE3 pIC50 (converted). On the procedure: (§1) Rat or human NHE-3-mediated Na^+-dependent H^+ antiport was measured using a modification of the pH sensitive dye method originally reported by Paradiso (Proc. Natl. Acad. Sci. USA. (1984) 81(23): 7436-7440). Opossum kidney (OK) cells were obtained from the ATCC and propagated per their instructions. The rat NHE-3 gene (GenBank M85300) or the human NHE-3 gene (GenBank NM_004174.1) was introduced into OK cells via electroporation, and cells were seeded into 96 well plates and grown overnight. Medium was aspirated from the wells, cells were washed twice with NaCl-HEPES buffer (100 mM NaCl, 50 mM HEPES, 10 mM glucose, 5 mM KCl, 2 mM CaCl2, 1 mM MgCl2, pH 7.4), then incubated for 30 min at room temperature with NH4Cl-HEPES buffer (20 mM NH4Cl, 80 mM NaCl, 50 mM HEPES, 5 mM KCl, 2 mM CaCl2, 1 mM MgCl2, pH 7.4) containing 5 μM bis(acetoxymethyl) 3,3′-(3′,6′-bis(acetoxymethoxy)-5-((acetoxymethoxy)carbonyl)-3-oxo-3H-spiro[isobenzofuran-1,9′-xanthene]-2′,7′-diyl)dipropanoate (BCECF-AM). Cells were washed twice with Ammonium free, Na^+-free HEPES (100 mM choline, 50 mM HEPES, 10 mM glucose, 5 mM KCl, 2 mM CaCl2, 1 mM MgCl2, pH 7.4) and incubated in the same buffer for 10 minutes at room temperature to lower intracellular pH. […] Initial rates were plotted as the average 2 or more replicates, and pIC50 values were estimated using GraphPad Prism.

Assay [3] has as its target T1, Rat NHE-3. Nature of the assay: Cell-based assay of NHE-3 activity (rat NHE-3 prompt inhibition). Particulars: OK cells with rat NHE-3 gene, compound present during pH recovery; for IC50: read-out: Rat NHE3 pIC50 (prompt) (converted). The method, then: as §1

As to `CN1Cc2c(Cl)cc(Cl)cc2[C@H](c2cccc(S(=O)(=O)NCCOCCOCCNC(=O)NCCN(CCNC(=O)NCCOCCOCCNS(=O)(=O)c3cccc([C@@H]4CN(C)Cc5c(Cl)cc(Cl)cc54)c3)C(=O)NCCCCCCCCCCCCNC(=O)N(CCNC(=O)NCCOCCOCCNS(=O)(=O)c3cccc([C@@H]4CN(C)Cc5c(Cl)cc(Cl)cc54)c3)CCNC(=O)NCCOCCOCCNS(=O)(=O)c3cccc([C@@H]4CN(C)Cc5c(Cl)cc(Cl)cc54)c3)c2)C1` [Example 45], the figures for the IC50 in assay [1], in assay [2] and in assay [3] were above 10000 nM, 100 to 10000 nM and 100 to 10000 nM, respectively.

On to `CN1Cc2c(Cl)cc(Cl)cc2[C@H](c2cccc(S(=O)(=O)NCCOCCOCCOCCNC(=O)NCCCN(CCCNC(=O)NCCOCCOCCOCCNS(=O)(=O)c3cccc([C@@H]4CN(C)Cc5c(Cl)cc(Cl)cc54)c3)CCCNC(=O)NCCOCCOCCOCCNS(=O)(=O)c3cccc([C@@H]4CN(C)Cc5c(Cl)cc(Cl)cc54)c3)c2)C1` [Example 51], for which the “Rat NHE3 pIC50 (persistent)” value in assay [1] is reported as “C (C NHE3 pIC50 > 7)”. Also, the “Human NHE3 pIC50” value in assay [2] is on record as “C (C NHE3 pIC50 > 7)”. For the same molecule, the “Rat NHE3 pIC50 (prompt)” value in assay [3] is “C (C NHE3 pIC50 > 7)”.

`CN1Cc2c(Cl)cc(Cl)cc2[C@H](c2cccc(S(=O)(=O)NCCOCCOCCOCCNC(=O)CCC(CCC(=O)NCCOCCOCCOCCNS(=O)(=O)c3cccc([C@@H]4CN(C)Cc5c(Cl)cc(Cl)cc54)c3)(CCC(=O)NCCOCCOCCOCCNS(=O)(=O)c3cccc([C@@H]4CN(C)Cc5c(Cl)cc(Cl)cc54)c3)NC(=O)Nc3ccccc3)c2)C1` [Example 13, 4-(1-(3-((S)-6,8-dichloro-2-methyl-1,2,3,4-tetrahydroisoquinolin-4-yl)phenylsulfonamido)-13-oxo-3,6,9-trioxa-12-azapentadecan-15-yl)-N^1,N^7-bis(2-(2-(2-(2-(3-((S)-6,8-dichloro-2-methyl-1,2,3,4-tetrahydroisoquinolin-4-yl)phenylsulfonamido)ethoxy)ethoxy)ethoxy)ethyl)-4-(3-phenylureido)heptanediamide]: the results for the IC50 in assay [1], in assay [2] and in assay [3] were below 100 nM, 100 to 10000 nM and 100 to 10000 nM, respectively.

`CN1Cc2c(Cl)cc(Cl)cc2[C@H](c2cccc(S(=O)(=O)NCCOCCOCCOCCNC(=O)CN(CCOCCOCCN(CC(=O)NCCOCCOCCOCCNS(=O)(=O)c3cccc([C@@H]4CN(C)Cc5c(Cl)cc(Cl)cc54)c3)CC(=O)NCCOCCOCCOCCNS(=O)(=O)c3cccc([C@@H]4CN(C)Cc5c(Cl)cc(Cl)cc54)c3)CC(=O)NCCOCCOCCOCCNS(=O)(=O)c3cccc([C@@H]4CN(C)Cc5c(Cl)cc(Cl)cc54)c3)c2)C1` [Example 42, 3,12-bis(14-(3-((S)-6,8-dichloro-2-methyl-1,2,3,4-tetrahydroisoquinolin-4-yl)phenylsulfonamido)-2-oxo-6,9,12-trioxa-3-azatetradecyl)-N^1,N^14-bis(2-(2-(2-(2-(3-((S)-6,8-dichloro-2-methyl-1,2,3,4-tetrahydroisoquinolin-4-yl)phenylsulfonamido)ethoxy)ethoxy)ethoxy)ethyl)-6,9-dioxa-3,12-diazatetradecane-1,14-diamide]: the IC50 in assay [1], in assay [2] and in assay [3] was below 100 nM in each case.

On to `CCCCCCCCCCC(=O)NC(CCC(=O)NCCOCCOCCNS(=O)(=O)c1cccc([C@@H]2CN(C)Cc3c(Cl)cc(Cl)cc32)c1)(CCC(=O)NCCOCCOCCNS(=O)(=O)c1cccc([C@@H]2CN(C)Cc3c(Cl)cc(Cl)cc32)c1)CCC(=O)NCCOCCOCCNS(=O)(=O)c1cccc([C@@H]2CN(C)Cc3c(Cl)cc(Cl)cc32)c1` [Example 22], for which, in assay [1], the “Rat NHE3 pIC50 (persistent)” value was “B (B NHE3 pIC50 5-7)”. In addition, in assay [2], the “Human NHE3 pIC50” value is “B (B NHE3 pIC50 5-7)”. The “Rat NHE3 pIC50 (prompt)” value in assay [3] is on record as “A (A NHE3 pIC50 < 5)”.

For `CCCCCCCCOc1ccc(CNC(CCC(=O)NCCOCCOCCNS(=O)(=O)c2cccc([C@@H]3CN(C)Cc4c(Cl)cc(Cl)cc43)c2)(CCC(=O)NCCOCCOCCNS(=O)(=O)c2cccc([C@@H]3CN(C)Cc4c(Cl)cc(Cl)cc43)c2)CCC(=O)NCCOCCOCCNS(=O)(=O)c2cccc([C@@H]3CN(C)Cc4c(Cl)cc(Cl)cc43)c2)cc1` [Example 23], in assay [1], the “Rat NHE3 pIC50 (persistent)” value is “B (B NHE3 pIC50 5-7)”. The “Human NHE3 pIC50” value in assay [2] is “C (C NHE3 pIC50 > 7)”. The “Rat NHE3 pIC50 (prompt)” value in assay [3] is “B (B NHE3 pIC50 5-7)”.

For `CCCCCCCCCCC(=O)NC(CCC(=O)NCCOCCOCCOCCNS(=O)(=O)c1cccc([C@@H]2CN(C)Cc3c(Cl)cc(Cl)cc32)c1)(CCC(=O)NCCOCCOCCOCCNS(=O)(=O)c1cccc([C@@H]2CN(C)Cc3c(Cl)cc(Cl)cc32)c1)CCC(=O)NCCOCCOCCOCCNS(=O)(=O)c1cccc([C@@H]2CN(C)Cc3c(Cl)cc(Cl)cc32)c1` [Example 15, 4-(1-(3-((S)-6,8-dichloro-2-methyl-1,2,3,4-tetrahydroisoquinolin-4-yl)phenylsulfonamido)-13-oxo-3,6,9-trioxa-12-azapentadecan-15-yl)-N^1,N^7-bis(2-(2-(2-(2-(3-((S)-6,8-dichloro-2-methyl-1,2,3,4-tetrahydroisoquinolin-4-yl)phenylsulfonamido)ethoxy)ethoxy)ethoxy)ethyl)-4-undecanamidoheptanediamide], the figures for the IC50 in assay [1], in assay [2] and in assay [3] were 100 to 10000 nM, 100 to 10000 nM and above 10000 nM, respectively.

Regarding `CN1Cc2c(Cl)cc(Cl)cc2[C@H](c2cccc(S(=O)(=O)NCCOCCOCCOCCNC(=O)CN(CC(=O)NCCOCCOCCOCCNS(=O)(=O)c3cccc([C@@H]4CN(C)Cc5c(Cl)cc(Cl)cc54)c3)[C@@H]3CCCC[C@H]3N(CC(=O)NCCOCCOCCOCCNS(=O)(=O)c3cccc([C@@H]4CN(C)Cc5c(Cl)cc(Cl)cc54)c3)CC(=O)NCCOCCOCCOCCNS(=O)(=O)c3cccc([C@@H]4CN(C)Cc5c(Cl)cc(Cl)cc54)c3)c2)C1` [Example 48], the “Rat NHE3 pIC50 (persistent)” value in assay [1] is “C (C NHE3 pIC50 > 7)”. The “Human NHE3 pIC50” value in assay [2] is “C (C NHE3 pIC50 > 7)”. In addition, the “Rat NHE3 pIC50 (prompt)” value in assay [3] was “B (B NHE3 pIC50 5-7)”.
